Measurements as given in the supplement of paper PMC10627819.

Assays:
Assay in all cases: fitness (endpoint OD595 vs no drug) (fraction); higher = more growth
S. pneumoniae D39V = tested on: S. pneumoniae D39V
In short: (§1)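 With the first reading as background, OD595 was measured every 30 min for 14 h in 384-well plates kept at 37 °C and inoculated at OD595 0.01. TSB, LB Lennox or CY was the medium. Fitness is the optical density at the transition into stationary phase divided by the robust mean of no-drug control wells, with a cap of 1.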

B. subtilis 168 = tested on: B. subtilis 168
In short: as §1

S. aureus DSM 20231 = tested on: S. aureus DSM 20231
In short: as §1
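Further: OD595 on entry to stationary phase over no-drug wells; at most 1.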

CN(C)[C@@H]1C(O)=C(C(N)=O)C(=O)[C@@]2(O)C(O)=C3C(=O)c4c(O)ccc(Cl)c4[C@@](C)(O)[C@H]3C[C@@H]12 [Chlortetracycline] + C[C@@H]1O[C@@H]1P(=O)(O)O [Fosfomycin]
Settings	fitness
B. subtilis 168, first compound 0.0475 µg/mL, partner 1.562 µg/mL	0.713
B. subtilis 168, first compound 0.0475 µg/mL, partner 3.124 µg/mL	0.636
B. subtilis 168, first compound 0.0475 µg/mL, partner 6.248 µg/mL	0.498
B. subtilis 168, first compound 0.095 µg/mL, partner 1.562 µg/mL	0.629
B. subtilis 168, first compound 0.095 µg/mL, partner 3.124 µg/mL	0.557
B. subtilis 168, first compound 0.095 µg/mL, partner 6.248 µg/mL	0.408
B. subtilis 168, first compound 0.19 µg/mL, partner 3.124 µg/mL	0.336
B. subtilis 168, first compound 0.19 µg/mL, partner 6.248 µg/mL	0.19
S. aureus DSM 20231, first compound 0.012 µg/mL, partner 0.781 µg/mL	0.309
S. aureus DSM 20231, first compound 0.012 µg/mL, partner 1.562 µg/mL	0.145
S. aureus DSM 20231, first compound 0.012 µg/mL, partner 3.124 µg/mL	0.0645
S. aureus DSM 20231, first compound 0.024 µg/mL, partner 0.781 µg/mL	0.154
S. aureus DSM 20231, first compound 0.024 µg/mL, partner 1.562 µg/mL	0.0553
S. aureus DSM 20231, first compound 0.024 µg/mL, partner 3.124 µg/mL	0.0457
S. aureus DSM 20231, first compound 0.048 µg/mL, partner 0.781 µg/mL	0.0506
S. aureus DSM 20231, first compound 0.048 µg/mL, partner 1.562 µg/mL	0.0192
S. aureus DSM 20231, first compound 0.048 µg/mL, partner 3.124 µg/mL	0.0143
S. pneumoniae D39V, first compound 0.012 µg/mL, partner 1.25 µg/mL	0.936
S. pneumoniae D39V, first compound 0.012 µg/mL, partner 2.5 µg/mL	0.881
S. pneumoniae D39V, first compound 0.012 µg/mL, partner 5 µg/mL	0.777
S. pneumoniae D39V, first compound 0.024 µg/mL, partner 1.25 µg/mL	0.629
S. pneumoniae D39V, first compound 0.024 µg/mL, partner 2.5 µg/mL	0.625
S. pneumoniae D39V, first compound 0.024 µg/mL, partner 5 µg/mL	0.628
S. pneumoniae D39V, first compound 0.048 µg/mL, partner 1.25 µg/mL	0.303
S. pneumoniae D39V, first compound 0.048 µg/mL, partner 2.5 µg/mL	0.31
S. pneumoniae D39V, first compound 0.048 µg/mL, partner 5 µg/mL	0.319
S. pneumoniae D39V, first compound 0.375 µg/mL, partner 1.25 µg/mL	0.045
S. pneumoniae D39V, first compound 0.375 µg/mL, partner 2.5 µg/mL	0.0463
S. pneumoniae D39V, first compound 0.375 µg/mL, partner 5 µg/mL	0.0538
S. pneumoniae D39V, first compound 0.75 µg/mL, partner 1.25 µg/mL	0.0544
S. pneumoniae D39V, first compound 0.75 µg/mL, partner 2.5 µg/mL	0.0368
S. pneumoniae D39V, first compound 0.75 µg/mL, partner 5 µg/mL	0.0501
S. pneumoniae D39V, first compound 1.5 µg/mL, partner 1.25 µg/mL	0.0742
S. pneumoniae D39V, first compound 1.5 µg/mL, partner 2.5 µg/mL	0.0712
S. pneumoniae D39V, first compound 1.5 µg/mL, partner 5 µg/mL	0.0865

S. aureus DSM 20231, first compound 0.006 µg/mL, one replicate
Settings	fitness
partner 0.781 µg/mL	0.609
partner 1.562 µg/mL	0.47
partner 3.124 µg/mL	0.205

CN(C)[C@@H]1C(O)=C(C(N)=O)C(=O)[C@@]2(O)C(O)=C3C(=O)c4c(O)ccc(Cl)c4[C@@](C)(O)[C@H]3C[C@@H]12 [Chlortetracycline] + COc1cccc2c1C(=O)c1c(O)c3c(c(O)c1C2=O)C[C@@](O)(C(=O)CO)C[C@@H]3O[C@H]1C[C@H](N)[C@H](O)[C@H](C)O1 [Doxorubicin]
Settings	fitness
B. subtilis 168, first compound 0.0475 µg/mL, partner 0.625 µg/mL	0.895
B. subtilis 168, first compound 0.0475 µg/mL, partner 1.25 µg/mL	0.845
B. subtilis 168, first compound 0.0475 µg/mL, partner 2.5 µg/mL	0.717
B. subtilis 168, first compound 0.095 µg/mL, partner 0.625 µg/mL	0.789
B. subtilis 168, first compound 0.095 µg/mL, partner 1.25 µg/mL	0.775
B. subtilis 168, first compound 0.095 µg/mL, partner 2.5 µg/mL	0.56
B. subtilis 168, first compound 0.19 µg/mL, partner 0.625 µg/mL	0.44
B. subtilis 168, first compound 0.19 µg/mL, partner 1.25 µg/mL	0.404
B. subtilis 168, first compound 0.19 µg/mL, partner 2.5 µg/mL	0.256
S. aureus DSM 20231, first compound 0.012 µg/mL, partner 0.625 µg/mL	0.632
S. aureus DSM 20231, first compound 0.012 µg/mL, partner 1.25 µg/mL	0.671
S. aureus DSM 20231, first compound 0.012 µg/mL, partner 2.5 µg/mL	0.54
S. aureus DSM 20231, first compound 0.024 µg/mL, partner 0.625 µg/mL	0.346
S. aureus DSM 20231, first compound 0.024 µg/mL, partner 1.25 µg/mL	0.358
S. aureus DSM 20231, first compound 0.048 µg/mL, partner 0.625 µg/mL	0.135
S. aureus DSM 20231, first compound 0.048 µg/mL, partner 1.25 µg/mL	0.1
S. aureus DSM 20231, first compound 0.048 µg/mL, partner 2.5 µg/mL	0.0901
S. pneumoniae D39V, first compound 0.012 µg/mL, partner 0.25 µg/mL	0.829
S. pneumoniae D39V, first compound 0.012 µg/mL, partner 0.5 µg/mL	0.797
S. pneumoniae D39V, first compound 0.012 µg/mL, partner 1 µg/mL	0.714
S. pneumoniae D39V, first compound 0.024 µg/mL, partner 0.25 µg/mL	0.512
S. pneumoniae D39V, first compound 0.024 µg/mL, partner 0.5 µg/mL	0.458
S. pneumoniae D39V, first compound 0.024 µg/mL, partner 1 µg/mL	0.451
S. pneumoniae D39V, first compound 0.048 µg/mL, partner 0.25 µg/mL	0.175
S. pneumoniae D39V, first compound 0.048 µg/mL, partner 0.5 µg/mL	0.221
S. pneumoniae D39V, first compound 0.048 µg/mL, partner 1 µg/mL	0.179
S. pneumoniae D39V, first compound 0.375 µg/mL, partner 0.25 µg/mL	0.0266
S. pneumoniae D39V, first compound 0.375 µg/mL, partner 0.5 µg/mL	0.016
S. pneumoniae D39V, first compound 0.375 µg/mL, partner 1 µg/mL	0.0403
S. pneumoniae D39V, first compound 0.75 µg/mL, partner 0.25 µg/mL	0.031
S. pneumoniae D39V, first compound 0.75 µg/mL, partner 0.5 µg/mL	0.0286
S. pneumoniae D39V, first compound 0.75 µg/mL, partner 1 µg/mL	0.0402
S. pneumoniae D39V, first compound 1.5 µg/mL, partner 0.25 µg/mL	0.0296
S. pneumoniae D39V, first compound 1.5 µg/mL, partner 0.5 µg/mL	0.0259
S. pneumoniae D39V, first compound 1.5 µg/mL, partner 1 µg/mL	0.052

S. aureus DSM 20231, first compound 0.006 µg/mL, one replicate
Settings	fitness
partner 0.625 µg/mL	0.719
partner 1.25 µg/mL	0.685
partner 2.5 µg/mL	0.64

CN(C)[C@@H]1C(O)=C(C(N)=O)C(=O)[C@@]2(O)C(O)=C3C(=O)c4c(O)ccc(Cl)c4[C@@](C)(O)[C@H]3C[C@@H]12 [Chlortetracycline] + CC(=O)NC[C@H]1CN(c2ccc(N3CCOCC3)c(F)c2)C(=O)O1 [Linezolid]
Settings	fitness
B. subtilis 168, first compound 0.0475 µg/mL, partner 0.25 µg/mL	0.0413
B. subtilis 168, first compound 0.0475 µg/mL, partner 0.5 µg/mL	0.0371
B. subtilis 168, first compound 0.095 µg/mL, partner 0.25 µg/mL	0.0555
B. subtilis 168, first compound 0.095 µg/mL, partner 0.5 µg/mL	0.0371
B. subtilis 168, first compound 0.19 µg/mL, partner 0.125 µg/mL	0.0875
B. subtilis 168, first compound 0.19 µg/mL, partner 0.25 µg/mL	0.0467
B. subtilis 168, first compound 0.19 µg/mL, partner 0.5 µg/mL	0.0344
S. aureus DSM 20231, first compound 0.012 µg/mL, partner 0.125 µg/mL	0.516
S. aureus DSM 20231, first compound 0.012 µg/mL, partner 0.25 µg/mL	0.423
S. aureus DSM 20231, first compound 0.012 µg/mL, partner 0.5 µg/mL	0.135
S. aureus DSM 20231, first compound 0.024 µg/mL, partner 0.25 µg/mL	0.179
S. aureus DSM 20231, first compound 0.024 µg/mL, partner 0.5 µg/mL	0.0849
S. aureus DSM 20231, first compound 0.048 µg/mL, partner 0.125 µg/mL	0.141
S. aureus DSM 20231, first compound 0.048 µg/mL, partner 0.25 µg/mL	0.0729
S. aureus DSM 20231, first compound 0.048 µg/mL, partner 0.5 µg/mL	0.0288
S. pneumoniae D39V, first compound 0.012 µg/mL, partner 0.105 µg/mL	0.785
S. pneumoniae D39V, first compound 0.012 µg/mL, partner 0.21 µg/mL	0.685
S. pneumoniae D39V, first compound 0.012 µg/mL, partner 0.42 µg/mL	0.422
S. pneumoniae D39V, first compound 0.024 µg/mL, partner 0.105 µg/mL	0.739
S. pneumoniae D39V, first compound 0.024 µg/mL, partner 0.21 µg/mL	0.585
S. pneumoniae D39V, first compound 0.024 µg/mL, partner 0.42 µg/mL	0.251
S. pneumoniae D39V, first compound 0.048 µg/mL, partner 0.105 µg/mL	0.609
S. pneumoniae D39V, first compound 0.048 µg/mL, partner 0.21 µg/mL	0.387
S. pneumoniae D39V, first compound 0.048 µg/mL, partner 0.42 µg/mL	0.211
S. pneumoniae D39V, first compound 0.375 µg/mL, partner 0.2 µg/mL	0.0262
S. pneumoniae D39V, first compound 0.375 µg/mL, partner 0.4 µg/mL	0.028
S. pneumoniae D39V, first compound 0.375 µg/mL, partner 0.8 µg/mL	0.0276
S. pneumoniae D39V, first compound 0.75 µg/mL, partner 0.2 µg/mL	0.025
S. pneumoniae D39V, first compound 0.75 µg/mL, partner 0.4 µg/mL	0.04
S. pneumoniae D39V, first compound 0.75 µg/mL, partner 0.8 µg/mL	0.0503
S. pneumoniae D39V, first compound 1.5 µg/mL, partner 0.2 µg/mL	0.0494
S. pneumoniae D39V, first compound 1.5 µg/mL, partner 0.4 µg/mL	0.0334
S. pneumoniae D39V, first compound 1.5 µg/mL, partner 0.8 µg/mL	0.044

one replicate
Settings	fitness
B. subtilis 168, first compound 0.0475 µg/mL, partner 0.0625 µg/mL	0.751
B. subtilis 168, first compound 0.095 µg/mL, partner 0.0625 µg/mL	0.53
B. subtilis 168, first compound 0.19 µg/mL, partner 0.0625 µg/mL	0.213
S. aureus DSM 20231, first compound 0.006 µg/mL, partner 0.125 µg/mL	0.649
S. aureus DSM 20231, first compound 0.006 µg/mL, partner 0.25 µg/mL	0.59
S. aureus DSM 20231, first compound 0.006 µg/mL, partner 0.5 µg/mL	0.213
S. aureus DSM 20231, first compound 0.012 µg/mL, partner 1 µg/mL	0.0536
S. aureus DSM 20231, first compound 0.024 µg/mL, partner 1 µg/mL	0.0397
S. aureus DSM 20231, first compound 0.048 µg/mL, partner 1 µg/mL	0.0171

CC(=O)Oc1ccccc1C(=O)O [Acetylsalicylic acid] + CC(=O)NC[C@H]1CN(c2ccc(N3CCOCC3)c(F)c2)C(=O)O1 [Linezolid]
fitness
Settings	first compound 250 µg/mL	first compound 500 µg/mL	first compound 1000 µg/mL
S. aureus DSM 20231, partner 0.125 µg/mL	0.868	–	0.509
S. aureus DSM 20231, partner 0.25 µg/mL	0.582	0.486	0.275
S. aureus DSM 20231, partner 0.5 µg/mL	0.203	0.159	0.117
S. pneumoniae D39V, partner 0.105 µg/mL	0.879	0.866	0.776
S. pneumoniae D39V, partner 0.2 µg/mL	0.675	0.623	0.463
S. pneumoniae D39V, partner 0.21 µg/mL	0.756	0.773	0.712
S. pneumoniae D39V, partner 0.4 µg/mL	0.598	0.582	0.439
S. pneumoniae D39V, partner 0.42 µg/mL	0.573	0.561	0.442
S. pneumoniae D39V, partner 0.8 µg/mL	0.252	0.24	0.208

S. aureus DSM 20231, partner 1 µg/mL, one replicate
Settings	fitness
first compound 250 µg/mL	0.0592
first compound 500 µg/mL	0.0468
first compound 1000 µg/mL	0.0354
